Laboratory results: patent US11579147B2, “Use of VNN1 as a biomarker and a therapeutic target in sarcomas” (INSERM (Institut National de la Santé et de la Recherche …, priority 2017, dated 2023)
Entries after “also recorded” stand apart in the source; their conditions may differ.

What was measured:
[1] = test system: myofibroblast cell lines (J2A, H1 or I1); assay: in vitro growth of Ras-transfected myofibroblast cell lines; assay type: cell-based, mouse; settings: data not shown
Excerpt: Given the slow rate of tumor development and the rare emergence of STS in Vnn1+/+ mice, we developed new transplantable STS models. The different tumors derived from three independent myofibroblast cell lines (J2A, H1 or I1) were subcutaneously grafted in Nude mice. […] Since pantetheinase activity releases pantothenate and cysteamine in vivo, we tested the effect of these compounds on in vitro and in vivo growth.

[2] = test system: various metabolites analyzed by LC-MS; assay: LC-MS analysis of tumor metabolites; assay type: in vivo; settings: administration to tumor-bearing mice
Excerpt: (§1) Since pantetheinase hydrolyses pantetheine into pantothenate and cysteamine, we searched for more specific actions. We first focused on pantothenate which could be detected by LC-MS analysis. […] Accordingly, we found some significant variations in the levels of various metabolites involved in the regulation of the TCA cycle.

[3] = test system: Ras expressing tumors (R); assay: growth of tumors subcutaneously grafted in Nude mice; assay type: in vivo; settings: administered to grafted mice, FIG. 4
Excerpt: The different tumors derived from three independent myofibroblast cell lines (J2A, H1 or I1) were subcutaneously grafted in Nude mice. […] Since pantetheinase activity releases pantothenate and cysteamine in vivo, we tested the effect of these compounds on in vitro and in vivo growth.

[4] = test system: collagen I or caveolin I genes; assay: qRT-PCR of differentiation genes in enriched tumor cells depleted of CD45+ cells; assay type: in vivo, mice; settings: cysteamine-treated R tumor cells
Excerpt: We then performed a similar analysis using RNA extracted from enriched R, cysteamine-treated R and VR tumor cells depleted of CD45+ hematopoietic cells. […] Therefore, Vnn1 expression is associated with a differentiated grade of tumors which is not recapitulated by CEA administration.

GSH levels = GSH levels in tumor tissue extracts; assay type: in vivo; settings: administration to tumor-bearing mice, data not shown
Excerpt: as §1

CoA levels = assay: coenzyme A levels in tumors; assay type: in vivo; settings: administration to mice bearing R tumors
Excerpt: as §1

CoA levels in tumors (CoA levels)	Compound	growth of cell lines in vitro [1]	impact on the various metabolites analyzed by LC-MS [2]	tumor growth in grafted mice [3]	expression of collagen I or caveolin I genes [4]	GSH levels in tissue extracts (GSH levels)
–	CC(C)(CO)[C@@H](O)C(=O)NCCC(=O)O [pantothenate, 3-[(2R)-(2,4-Dihydroxy-3,3-dimethylbutanoyl)amino]propanoic acid]	no effect	–	–	–	–
only moderately enhanced	NCCS [cysteamine, 2-aminoethanethiol]	reduced the growth of all cell lines	could not detect a significant impact	inhibits tumor growth; also recorded: reduced the growth	not able to induce the expression	reduction in GSH levels
